# Test results from patent publication US6096784A, “Inhibitors of oleamide hydrolase” (The Scripps Research Institute, priority 1999, dated 2000).
# Read-outs that look alike come from different tables or passages of the source.
# Assays:
# [1] = molecular target: T1, oleamide hydrolase (Rattus norvegicus, UniProt P97612); test: Oleamide hydrolase inhibition, ammonia production measured with ion-selective electrode; format: biochemical
# T1 construct: The enzyme was used as a crude, heterogenous, membrane-containing preparation from rat liver; from tissue; host or cells: rat liver plasma membrane preparation (12-14 rat livers), crude
# T1 sequence (P97612 1-579): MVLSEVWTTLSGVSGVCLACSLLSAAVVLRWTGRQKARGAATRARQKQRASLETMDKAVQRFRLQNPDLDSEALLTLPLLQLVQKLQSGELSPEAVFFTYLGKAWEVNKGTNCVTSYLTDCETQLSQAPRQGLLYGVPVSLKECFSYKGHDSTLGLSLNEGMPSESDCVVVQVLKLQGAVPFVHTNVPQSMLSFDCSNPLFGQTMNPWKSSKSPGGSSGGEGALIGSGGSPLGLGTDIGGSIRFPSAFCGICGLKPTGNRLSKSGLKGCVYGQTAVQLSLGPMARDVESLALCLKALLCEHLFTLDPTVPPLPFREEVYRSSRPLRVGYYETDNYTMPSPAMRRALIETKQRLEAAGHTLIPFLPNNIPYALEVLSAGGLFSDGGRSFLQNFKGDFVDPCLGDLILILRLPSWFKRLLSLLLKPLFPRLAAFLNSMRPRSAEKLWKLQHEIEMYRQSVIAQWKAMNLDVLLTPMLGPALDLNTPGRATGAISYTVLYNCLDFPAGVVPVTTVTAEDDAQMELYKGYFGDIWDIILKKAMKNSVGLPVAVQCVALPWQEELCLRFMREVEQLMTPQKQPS
# Procedure: Error values presented with Ki s should be considered goodness-of-fit estimates derived from propagation of errors treatment of data. They are not necessarily an indication of reproducibility.
# Twelve to fourteen rat livers were sectioned and placed in 300 mL of 1 mM NaHCO3. The solution of diced liver was strained and washed with additional 300 mL of 1 mM NaHCO3. Any conspicuous connective tissue was removed. The liver was transferred to a fresh 800 mL of 1 mM NaHCO3, stirred and then transferred in 400 mL aliquots to a blender. Blended liver aliquots were combined and filtered through 8 layers of cheesecloth. This was diluted to 1.0 L with 1 μM NaHCO3 and centrifuged at 6000 rpm for 20 minutes at 40° C. (Beckman JA-17 rotor). The supernatant was decanted, the pellets resuspended in 1 mM NaHCO3, combined and dounce homogenized. Centrifugation, decantation and resuspension/homogenization were repeated to give a final volume of approximately 90 mL. The homogenate was added to 2 volume equivalents of 67% sucrose, mixed thoroughly, and transferred to ultracentrifuge compatible tubes. The tubes were topped with 30% sucrose and spun at 27,000 for 2 hours (SW-28 rotor). The middle yellow band was removed from the sucrose gradient, combined, resuspended in 1 mM NaHCO3, and dounce homogenized. The sample was further centrifuged at 17,000 rpm for 45 minutes at 4° C. (JA-17 rotor). The supernatant was removed, the pellets resuspended in 100 mM Na2 CO3, dounce homogenized and left on ice for 30 minutes. The solution was centrifuged at 27,000 rpm for 1 hour (SW-28 rotor), the supernatant was decanted and the pellet resuspended in 15 mL of 50 mM Tris HCl, pH 7.4 with 1 mM EDTA, and homogenized with a dounce homogenizer. This material was divided into multiple aliquots and frozen at -78° C. until use. Each enzyme sample was frozen once only.
# [2] = molecular target: T1, oleamide hydrolase; test: Determination of Km for oleamide (Lineweaver-Burke plot); format: biochemical
# Procedure: The potency of the inhibitors was determined using an ion selective electrode to measure the production of ammonia as the result of the hydrolysis of 100 μM oleamide (~20 Km) by a membrane bound preparation of oleamide hydrolase. […] Inhibition constants were determined by the Dixon method (FIGS. 4-6).
# The enzyme was used as a crude, heterogenous, membrane-containing preparation from rat liver. […] Within solubility limits, all inhibitors achieved 100% inhibition of activity at concentrations of greater than 100 Ki. No detectable activity was found in the absence of added oleamide.
# The Km for oleamide was determined as the average Km obtained from four independent assays. Each independent Km was obtained from weighted linear fit of data in a Lineweaver-Burke plot. A fifth concurring Km was obtained as a result of the determination of oleic acid inhibition by non-linear methods. The rate data was fit with the standard Michaelis-Menten kinetic equation.
# [3] = molecular target: T1, oleamide hydrolase; test: pH-rate dependence of oleamide hydrolase cleavage of oleamide; format: biochemical; conditions: cleavage of compound 1
# Procedure: FIG. 12 illustrates the equations used to determine the pH-Rate dependence. The rate was obtained from the linear portion of the curve which was fit using a standard least squares procedure. These rates were replotted against pH and fit with the shown equation by a weighted non-linear least-squares method.
# Crude enzyme was added to a solution of 200 μM oleamide (approximately the solubility limit) 1 in 20 mL buffer at the appropriate pH, containing 5% DMSO. (Concentrations of up to 20% DMSO had only minimal effect on enzyme rates.) A 50 mM sodium citrate/Bis-tris buffer was used for data points in the pH 4-9 range. A 50 mM Bis-tris/CAPS was used for data points in the 8-11 range. At pH 12, the solution was assumed to be self-buffering. At periodic time intervals, 1 mL aliquots were removed and diluted with 9 mL pH 14 buffer. Ammonia concentrations were measured with an ion-selective ammonia electrode (Orion) connected to a 720 A meter (Orion), calibrated against known standards. The rate was obtained from the linear portion of the curve which was fit using a standard least-squares procedure. […]
# [4] = Solubility of oleamide in assay buffer; format: physicochemical; conditions: buffer with 5% dmso, organic solvent or mixture; buffer containing 5% DMSO; read-out: solubility limit
# [5] = Ammonia production from oleamide in the absence of enzyme; format: physicochemical; conditions: 100 μM oleamide, pH 10.0
# Procedure: The potency of the these compounds against oleamide hydrolysis was evaluated using an ion-selective ammonia electrode (ATI/Orion) to directly measure ammonia formation as the product of the reaction. All Ki s except for that of oleic acid were determined by the Dixon method. (X intercepts of weighted linear fits of [I] versus 1/Rate plots at a constant substrate concentration were converted to Ki 's using the formula Ki =-Xint /[1+[S]/Km ].) The oleic acid Ki was obtained from a non-linear weighted least-squares fit of rate versus substrate and inhibitor concentrations. The assays were done with constant stirring in 10 mL 50 mM CAPS buffer (Sigma) adjusted to pH 10.0, the pH at which the rate of enzymatically catalyzed oleamide hydrolysis is maximal. In all cases which involved Dixon analysis, the substrate concentration was 100 μM. The oleic acid Ki was determined over a range of substrate concentrations from 10 to 100 μM. Substrate and inhibitors were dissolved in DMSO prior to addition to the 50 mM CAPS buffer, generating a final DMSO assay concentration of 1.67%. […] The enzyme concentration was adjusted to produce a rate of roughly 0.2 μM/min in the absence of inhibitor and the rate of ammonia production observed over a period of 7 to 10 minutes.
# The enzyme was used as a crude, heterogenous, membrane-containing preparation from rat liver. […]
# [6] = test system: animals; conditions: cited from earlier work; for somnolescent activity: in vivo
# [7] = Extent of hydration / hemiacetal formation of inhibitor carbonyl by 1H and 13C NMR; format: physicochemical; conditions: for conversion to hemiacetal: CD3OD, NMR
# Text: FIG. 2 illustrates ^1 H NMR and ^13 C NMR data to establish and quantitate the addition of CD3 OD or D2 O to the electrophilic carbonyl in CD3 OD or acetone-d6. […] Expected trends follow 11>12>8>6≥4.
# [8] = test system: rat; test: Sleep monitoring in rat after intra-abdominal injection, electrophysiological methods; format: in vivo; conditions: intraperitoneal, mineral oil, four hours
# Procedure: Another aspect of the invention is directed to a method for inducing sleep within an oleamide sensitive animal by administrating an effective dose of an […] of oleamide hydrolase. A preferred […] is compound 6. Compound 6 was dissolved in mineral oil and an effective dose was injected into the peritoneum of a rat by intra-abdominal injection. Sleep was monitored for the following four hours. Total sleep time was determined by standard electrophysiological methods. An increase of deep slow-wave sleep (SWS) with a reduction of the waking period was observed.
# [9] = pH 10.0, 100 μM oleamide, Dixon method, read-out: inhibition constant (Ki,app)
# [10] = pH 10.0, 100 μM oleamide, Dixon method, read-out: Ki
smiles,measurement,setting,value
CCCCCCCC/C=C\CCCCCCCC(OC)OC [Compound 16],inhibition of oleamide hydrolase (in words),[1],poor inhibition
"O=S(=O)(F)Cc1ccccc1 [phenylmethylsulfonyl fluoride, reference compound]",inhibition of oleamide hydrolase (in words),[1],can be inhibited
"CCCCCCCC/C=C\CCCCCCC=O [Compound 5, 8Z-Heptadecenal]","relative binding, C-2 versus C-1 position of electrophilic carbonyl (aldehydes)",[1]; 5 versus 4,five times more tightly than 4
"CCCCCCCC/C=C\CCCCCCCC(N)=O [Compound 1, cis-9-octadecenamide]",dependence of reaction rate on substrate concentration,[2]; 30-100 μM,essentially a zero order dependence on substrate concentration
same,Km,[2]; average of four independent assays,5 ± 2 µM
same,pH of rate maximum,[3],10.0
same,solubility,[4],~200 µM
same,rate of ammonia production in the absence of enzyme,[5],only a very minimal rate of ammonia production
same,quantity inducing physiological sleep,[6]; injected intravascularly,nanomolar quantities
"CCCCCCCC/C=C\CCCCCCC(=O)C(=O)OCC [Compound 8, Ethyl 2-Oxo-9Z-octadecenoate]","increase in binding affinity, C-2 versus C-1 position of electrophilic carbonyl (α-keto esters)",[1]; 8 versus 9,6 fold
same,relative binding (in words),[1]; comparison between inhibitors,bind equally tightly
same,Ki,[1]; [9],1.4 nM
same,conversion to hemiacetal,[7],75%
CCCCCCCC/C=C\CCCCCCC(O)C(=O)O (stereo not drawn) [Compound 18],inhibition of oleamide hydrolase (in words),[1],poor inhibition
"CCCCCCCC/C=C\CCCCCCC(=O)C(F)(F)F [Compound 13, 1,1,1-Trifluoro-9Z-octadecen-2-one]",hydration of carbonyl (in words),[7],almost entirely as hydrates
"c1cc(SSc2ccncc2)ccn1 [4,4'-dithiodipyridine disulfide, reference compound]",inhibition of oleamide hydrolase (in words),[1],can be inhibited
"O=C(O)CN(CCN(CC(=O)O)CC(=O)O)CC(=O)O [EDTA, reference compound]",inhibition of oleamide hydrolase (in words),[1],not by 1 mM EDTA
"CCCCCCCC/C=C\CCCCCCC(=O)C(N)=O [Compound 6, 2-Oxo-9Z-octadecenamide]",conversion to hemiacetal,[7],48%
same,increase of deep slow-wave sleep (SWS),[8],approximately 30%
same,reduction of waking,[8],a similar percent of reduction of waking
N [ammonia],somnolescent activity,[6],neither of which demonstrate somnolescent activity
"CCCCCCCC/C=C\CCCCCCC(Cl)C(=O)O (stereo not drawn) [Compound 20, 2-Chlorcoleic acid]",mode of binding (in words),[1],appeared to bind reversibly
same,Ki,[1]; [10],300 nM
"CCCCCCCC/C=C/CCCCCCCC(=O)C(F)(F)F [Compound 14, 1,1,1-Trifluoro-10E-nonadecen-2-one]",hydration of carbonyl (in words),[7],almost entirely as hydrates
"[Cl][Hg][Cl] [HgCl2, reference compound]",inhibition of oleamide hydrolase (in words),[1],can be inhibited
same,IC50,[1]; HgCl2,700 nM
same,Ki,"[1]; HgCl2, read-out: Ki, app",37 nM
"CCCCCCCC/C=C\CCCCCCC(O)C(N)=O (stereo not drawn) [Compound 17, 2-Hydroxy-9Z-octadecenamide]",inhibition of oleamide hydrolase (in words),[1],poor inhibition
CCCCCCCCCCCCCCCCCC(=O)C(F)(F)F [Compound 15],hydration of carbonyl (in words),[7],almost entirely as hydrates
"CCCCCCCC/C=C\CCCCCCCC(=O)C(N)=O [Compound 7, 2-Oxo-10Z-nonadecenamide]",relative binding (in words),[1]; comparison between inhibitors,binds more tightly
"CCCCCCCC/C=C\CCCCCCCC(=O)O [oleic acid, cis-9-octadecenoic acid, reference compound]",Ki,"[1]; pH 10.0, non-linear weighted least-squares fit, 10 to 100 μM oleamide, read-out: Ki",6000 nM
same,somnolescent activity,[6],neither of which demonstrate somnolescent activity
"CCCCCCCC/C=C\CCCCCCCC(=O)CCl [Compound 3, 1-Chloro-10Z-nonadecen-2-one]",time dependence of inhibitory activity,"[1]; first fifteen minutes of incubation, up to solubility limits",time independent but moderate inhibition
same,Ki,[1]; [10],700 nM
CCCCCCCC/C=C\CCCCCCCC=O [Compound 4],conversion to hemiacetal,[7],47%
"CCCCCCCCCCCCCCCC(=O)C(O)(O)C(=O)OC(C)(C)C [Compound 11, tert-Butyl 3-Oxo-2,2-dihydroxyoctadecanoate]",Ki,[1]; [9],150 nM
same,hydration of carbonyl (in words),[7],fully hydrated
same,conversion to hemiacetal,[7],100%
"CCCCCCCC/C=C\CCCCCCCC(=O)C(F)(F)F [Compound 12, 1,1,1-Trifluoro-10Z-nonadecen-2-one]",Ki,[1],1.2 nM
same,preference for cis double bond at 9 position,[1],approximately an order of magnitude more tightly than the trans double bond containing 14 or the saturated derivative 15
same,relative binding (in words),[1],bind equally tightly
same,type of inhibition (Lineweaver-Burke plot),[1],competitive
same,hydration of carbonyl (in words),[7],almost entirely as hydrates
same,conversion to hemiacetal,[7],100%
"CCCCCCCC/C=C\CCCCCCCC(=O)C=[N+]=[N-] [Compound 21, 1-Diazo-10Z-nonadecen-2-one]",Ki,[1]; [10],18000 nM
